Reference: BigSolDB 2.1

O=C(O)c1cccc(C(=O)O)c1
Settings | solubility (mole fraction)
in isopropanol, 278.55 K | 0.00218
in isopropanol, 279.87 K | 0.00226
in isopropanol, 283.25 K | 0.00255
in isopropanol, 288.15 K | 0.00291
in isopropanol, 293.15 K | 0.00325
in isopropanol, 298.15 K | 0.00396
in isopropanol, 303.05 K | 0.00459
in isopropanol, 308.25 K | 0.00535
in isopropanol, 313.15 K | 0.00607
in isopropanol, 318.25 K | 0.00675
in methanol, 278.15 K | 0.00253
in methanol, 283.25 K | 0.00276
in methanol, 288.05 K | 0.00314
in methanol, 293.25 K | 0.00346
in methanol, 298.75 K | 0.00379
in methanol, 302.65 K | 0.00411
in methanol, 307.95 K | 0.00456
in n-butanol, 278.06 K | 0.00187
in n-butanol, 283.11 K | 0.00216
in n-butanol, 288.27 K | 0.00234
in n-butanol, 293.3 K | 0.00265
in n-butanol, 298.06 K | 0.00315
in n-butanol, 303.66 K | 0.00366
in n-butanol, 308.36 K | 0.00386
in n-butanol, 312.66 K | 0.00474
in n-butanol, 317.94 K | 0.0052
in n-hexanol, 298.48 K | 0.00244
in n-hexanol, 302.97 K | 0.0032
in n-hexanol, 308.15 K | 0.00362
in n-hexanol, 312.7 K | 0.00424
in n-hexanol, 317.67 K | 0.00477
in n-hexanol, 320.84 K | 0.00544
in n-pentanol, 303.05 K | 0.00408
in n-pentanol, 308.05 K | 0.00532
in n-pentanol, 313.15 K | 0.00594
in n-pentanol, 318.15 K | 0.00651
in n-pentanol, 323.05 K | 0.0074
in n-propanol, 278.15 K | 0.00169
in n-propanol, 280.84 K | 0.0019
in n-propanol, 283.34 K | 0.0022
in n-propanol, 288.17 K | 0.00249
in n-propanol, 293.15 K | 0.00268
in n-propanol, 298.35 K | 0.0032
in n-propanol, 304.05 K | 0.00377
in n-propanol, 308.25 K | 0.00425
in n-propanol, 313.15 K | 0.00473
in n-propanol, 317.55 K | 0.00528
in sec-butanol, 283.05 K | 0.00145
in sec-butanol, 288.05 K | 0.00172
in sec-butanol, 293.15 K | 0.00209
in sec-butanol, 298.25 K | 0.00235
in sec-butanol, 303.45 K | 0.00263
in sec-butanol, 308.25 K | 0.00311
in sec-butanol, 313.25 K | 0.00346
in sec-butanol, 318.15 K | 0.00391
